From ChEMBL document CHEMBL5649167, “The SUV4-20 inhibitor A-196 verifies a role for epigenetics in genomic integrity” (Nat Chem Biol, 2017)

Columns and labels:
[1] = molecular target: Histone-lysine N-methyltransferase KMT5C (Homo sapiens, UniProt Q86Y97); assay: Inhibition of human SUV420H2 using Biotin-tagged H4K20me1 and [3H-SAM] as substrate incubated for 2 hrs by scintillation proximity assay
[2] = molecular target: Histone-lysine N-methyltransferase KMT5B (Homo sapiens, UniProt Q4FZB7); assay: Inhibition of recombinant human 6His-(Tev)-G-SUV420H1 (69 to 335 residues) using Biotin-tagged H4K20me1 and [3H-SAM] as substrate incubated for 2 hrs by scintillation proximity assay
Sequence of Histone-lysine N-methyltransferase KMT5B (Q4FZB7 whole entry, the tested form may be a part): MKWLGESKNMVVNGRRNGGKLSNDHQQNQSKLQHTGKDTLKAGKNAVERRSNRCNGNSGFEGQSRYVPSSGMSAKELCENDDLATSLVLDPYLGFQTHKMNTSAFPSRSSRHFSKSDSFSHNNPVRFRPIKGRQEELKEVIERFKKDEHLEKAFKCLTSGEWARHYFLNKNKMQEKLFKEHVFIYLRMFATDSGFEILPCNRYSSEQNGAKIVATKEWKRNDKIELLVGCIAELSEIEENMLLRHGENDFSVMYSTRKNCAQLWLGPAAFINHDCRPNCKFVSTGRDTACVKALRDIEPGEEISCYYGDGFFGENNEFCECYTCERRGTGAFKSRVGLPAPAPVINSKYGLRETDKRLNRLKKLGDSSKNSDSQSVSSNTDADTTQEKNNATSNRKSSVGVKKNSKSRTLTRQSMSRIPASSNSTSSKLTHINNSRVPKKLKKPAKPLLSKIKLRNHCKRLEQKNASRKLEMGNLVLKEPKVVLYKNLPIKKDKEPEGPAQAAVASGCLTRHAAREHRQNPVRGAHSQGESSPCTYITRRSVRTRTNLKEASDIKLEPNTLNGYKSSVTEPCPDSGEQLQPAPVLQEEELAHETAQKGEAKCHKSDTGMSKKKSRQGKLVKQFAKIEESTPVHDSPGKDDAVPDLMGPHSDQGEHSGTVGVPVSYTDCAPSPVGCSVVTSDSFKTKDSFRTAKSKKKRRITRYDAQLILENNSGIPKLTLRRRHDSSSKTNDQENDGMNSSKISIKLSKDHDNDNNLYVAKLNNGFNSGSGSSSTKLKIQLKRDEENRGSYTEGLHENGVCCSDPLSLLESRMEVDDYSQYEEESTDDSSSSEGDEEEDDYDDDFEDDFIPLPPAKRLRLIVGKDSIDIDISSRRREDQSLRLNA

B-cell [3] = assay: Induction of DNA repair in mouse B cells assessed as change in ability of splenic cells to switch from IgM to IgE at 1 uM incubated for 3 days in the presence of LPS plus IL-4 by flow cytometry analysis (Rvb=1.97%); type: functional; settings: time 3 day
[4] = molecular target: T1, 5-hydroxytryptamine receptor 2A (Homo sapiens, UniProt P28223); assay: Inhibition of human 5-HT2A assessed as inhibition constant
T1 sequence (P28223 whole entry): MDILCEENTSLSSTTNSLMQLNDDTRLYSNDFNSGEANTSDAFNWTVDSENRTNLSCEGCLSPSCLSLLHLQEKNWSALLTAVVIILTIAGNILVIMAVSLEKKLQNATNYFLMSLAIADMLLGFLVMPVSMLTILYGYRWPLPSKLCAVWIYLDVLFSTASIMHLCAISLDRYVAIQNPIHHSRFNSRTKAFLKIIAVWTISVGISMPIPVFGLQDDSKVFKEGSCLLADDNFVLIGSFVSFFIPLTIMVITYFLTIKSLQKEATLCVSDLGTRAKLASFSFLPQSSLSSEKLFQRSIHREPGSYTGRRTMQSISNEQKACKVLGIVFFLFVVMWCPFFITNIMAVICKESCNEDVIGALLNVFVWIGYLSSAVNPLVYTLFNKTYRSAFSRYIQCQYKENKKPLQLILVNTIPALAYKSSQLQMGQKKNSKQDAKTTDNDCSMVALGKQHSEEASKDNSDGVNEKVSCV

B-cell [5] = assay: Induction of DNA repair in mouse B cells assessed as change in ability of splenic cells to switch from IgM to IgE at 10 uM incubated for 3 days in the presence of LPS plus IL-4 by flow cytometry analysis (Rvb=1.97%); type: functional; settings: time 3 day
[6] = molecular target: Kappa-type opioid receptor (Homo sapiens, UniProt P41145); assay: Inhibition of human kappa opioid receptor expressed in stable HEK cells assessed as inhibition constant; type: cell-based
Sequence of Kappa-type opioid receptor (P41145 whole entry): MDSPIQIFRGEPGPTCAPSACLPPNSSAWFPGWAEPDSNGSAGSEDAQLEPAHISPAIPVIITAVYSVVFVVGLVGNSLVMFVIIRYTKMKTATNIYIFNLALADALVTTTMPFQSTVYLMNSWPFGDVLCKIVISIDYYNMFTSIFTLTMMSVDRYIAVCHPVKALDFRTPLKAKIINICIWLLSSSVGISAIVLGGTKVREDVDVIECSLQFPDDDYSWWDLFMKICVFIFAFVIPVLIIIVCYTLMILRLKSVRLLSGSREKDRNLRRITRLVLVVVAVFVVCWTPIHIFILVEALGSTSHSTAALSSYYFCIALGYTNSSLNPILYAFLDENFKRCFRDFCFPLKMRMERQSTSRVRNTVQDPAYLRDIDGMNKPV

B-cell [7] = assay: Induction of DNA repair in mouse B cells assessed as change in ability of splenic cells to switch from IgM to IgG1 at 10 uM incubated for 2 days in the presence of LPS by flow cytometry analysis (Rvb=9.59%); type: functional; settings: time 2 day
B-cell [8] = assay: Induction of DNA repair in mouse B cells assessed as change in ability of splenic cells to switch from IgM to IgG1 incubated for 2 days at 1 uM in the presence of LPS by flow cytometry analysis (Rvb=9.59%); type: functional; settings: time 2 day
B-cell [9] = assay: Induction of DNA repair in mouse B cells assessed as change in ability of splenic cells to switch from IgM to IgG3 at 10 uM incubated for 4 days in the presence of LPS by flow cytometry analysis (Rvb=5.71%); type: functional; settings: time 4 day
[10] = Inhibition of Rat GABAA assessed as inhibition constant in the presence of PBR
B-cell [11] = assay: Induction of DNA repair in mouse B cells assessed as change in ability of splenic cells to switch from IgM to IgG3 at 1 uM incubated for 4 days in the presence of LPS by flow cytometry analysis (Rvb=5.71%); type: functional; settings: time 4 day
[12] = molecular target: Sodium-dependent serotonin transporter (Homo sapiens, UniProt P31645); assay: Inhibition of human 5-HT transporter assessed as inhibition constant
Sequence of Sodium-dependent serotonin transporter (P31645 whole entry): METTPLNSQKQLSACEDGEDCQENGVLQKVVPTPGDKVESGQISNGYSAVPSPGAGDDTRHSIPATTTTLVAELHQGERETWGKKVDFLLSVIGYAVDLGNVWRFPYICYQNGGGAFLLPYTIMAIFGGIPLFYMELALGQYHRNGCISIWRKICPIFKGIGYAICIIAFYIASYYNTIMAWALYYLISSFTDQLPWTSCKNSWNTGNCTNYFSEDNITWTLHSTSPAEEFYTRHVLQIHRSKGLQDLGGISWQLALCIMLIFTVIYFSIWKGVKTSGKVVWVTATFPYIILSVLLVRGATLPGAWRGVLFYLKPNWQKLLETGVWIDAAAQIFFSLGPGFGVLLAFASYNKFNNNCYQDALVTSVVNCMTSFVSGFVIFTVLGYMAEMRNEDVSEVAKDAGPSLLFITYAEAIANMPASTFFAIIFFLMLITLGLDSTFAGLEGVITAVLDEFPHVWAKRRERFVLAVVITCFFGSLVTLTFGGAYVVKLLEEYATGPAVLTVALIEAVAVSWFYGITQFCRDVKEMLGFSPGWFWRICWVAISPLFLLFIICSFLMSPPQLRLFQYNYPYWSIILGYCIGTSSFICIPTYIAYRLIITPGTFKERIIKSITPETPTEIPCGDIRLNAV

Adenosine receptor A2a = Adenosine receptor A2a (Homo sapiens, UniProt P29274); assay: Inhibition of human Adenosine receptor A2a assessed as inhibition constant
Sequence of Adenosine receptor A2a (P29274 whole entry): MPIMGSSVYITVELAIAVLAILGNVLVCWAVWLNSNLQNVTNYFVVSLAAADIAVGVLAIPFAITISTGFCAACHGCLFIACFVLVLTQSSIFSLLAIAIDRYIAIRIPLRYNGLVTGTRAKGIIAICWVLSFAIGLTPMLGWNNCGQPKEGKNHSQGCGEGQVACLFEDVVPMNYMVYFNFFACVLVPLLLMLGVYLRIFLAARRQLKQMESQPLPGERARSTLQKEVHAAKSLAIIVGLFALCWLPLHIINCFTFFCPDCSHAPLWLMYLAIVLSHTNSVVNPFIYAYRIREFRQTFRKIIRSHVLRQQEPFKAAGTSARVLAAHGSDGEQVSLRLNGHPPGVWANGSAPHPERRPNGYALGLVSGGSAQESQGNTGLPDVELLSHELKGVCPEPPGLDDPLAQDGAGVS

[13] = Inhibition of human 5-HT3 receptor expressed in HEK293T cells at 10 uM relative to control; settings: HEK-293T
[14] = molecular target: KV channel (voltage-gated potassium channel) (Homo sapiens, UniProt O43525+O43526+O95259+P16389+P17658+P22001+P22459+P22460+P48547+P51787+P56696+Q03721+Q09470+Q12809+Q14003+Q14721+Q16322+Q6PIU1+Q8NCM2+Q8TAE7+Q8TDN1+Q8TDN2+Q92953+Q96KK3+Q96L42+Q96PR1+Q96RP8+Q9BQ31+Q9H252+Q9H3M0+Q9NR82+Q9NS40+Q9NSA2+Q9NZV8+Q9UIX4+Q9UJ96+Q9UK17+Q9ULD8+Q9ULS6+Q9UQ05); assay: Inhibition of human KV channel at 10 uM relative to control; type: protein assay
[15] = molecular target: T1, 5-hydroxytryptamine receptor 2A; assay: Inhibition of human 5-HT2A receptor expressed in HEK293T cells assessed as inhibition constant; type: cell-based
Adenosine receptor A1 = molecular target: T2, Adenosine receptor A1 (Homo sapiens, UniProt P30542); assay: Inhibition of human Adenosine receptor A1 assessed as inhibition constant
T2 sequence (P30542 whole entry): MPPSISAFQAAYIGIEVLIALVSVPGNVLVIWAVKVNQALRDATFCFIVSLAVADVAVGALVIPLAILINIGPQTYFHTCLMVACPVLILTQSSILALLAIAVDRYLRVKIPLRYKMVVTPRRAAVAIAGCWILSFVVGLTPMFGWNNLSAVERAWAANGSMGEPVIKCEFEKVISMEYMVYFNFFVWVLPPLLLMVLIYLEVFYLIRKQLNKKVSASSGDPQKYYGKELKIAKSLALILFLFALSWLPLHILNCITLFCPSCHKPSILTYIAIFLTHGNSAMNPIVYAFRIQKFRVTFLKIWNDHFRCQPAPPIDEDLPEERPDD

Adenosine receptor A3 = molecular target: T3, Adenosine receptor A3 (Homo sapiens, UniProt P0DMS8); assay: Inhibition of human Adenosine receptor A3 assessed as inhibition constant
T3 sequence (P0DMS8 whole entry): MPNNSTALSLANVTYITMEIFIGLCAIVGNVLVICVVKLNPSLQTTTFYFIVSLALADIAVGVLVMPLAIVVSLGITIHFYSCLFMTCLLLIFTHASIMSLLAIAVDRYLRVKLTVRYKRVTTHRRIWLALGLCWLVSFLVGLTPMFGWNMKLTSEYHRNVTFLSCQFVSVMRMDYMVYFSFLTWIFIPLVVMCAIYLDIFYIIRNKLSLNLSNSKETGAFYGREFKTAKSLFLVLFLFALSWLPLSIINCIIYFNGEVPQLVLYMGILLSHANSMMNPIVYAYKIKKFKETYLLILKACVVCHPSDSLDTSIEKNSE

[16] = molecular target: T4, 5-hydroxytryptamine receptor 1A (Homo sapiens, UniProt P08908); assay: Inhibition of human 5-HT1A assessed as inhibition constant
T4 sequence (P08908 whole entry): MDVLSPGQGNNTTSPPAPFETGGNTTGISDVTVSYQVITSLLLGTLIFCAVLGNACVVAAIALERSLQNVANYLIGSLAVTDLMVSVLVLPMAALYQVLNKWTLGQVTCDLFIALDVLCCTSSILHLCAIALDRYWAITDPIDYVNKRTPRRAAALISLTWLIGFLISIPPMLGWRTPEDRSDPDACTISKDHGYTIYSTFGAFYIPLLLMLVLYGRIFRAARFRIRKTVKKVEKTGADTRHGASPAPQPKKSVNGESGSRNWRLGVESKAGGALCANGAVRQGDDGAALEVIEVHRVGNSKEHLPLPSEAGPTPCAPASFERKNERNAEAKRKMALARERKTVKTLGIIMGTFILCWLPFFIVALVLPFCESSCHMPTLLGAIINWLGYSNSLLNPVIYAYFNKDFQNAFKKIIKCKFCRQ

[17] = molecular target: L-type calcium channel (verapamil binding site) (Homo sapiens, UniProt O60840+Q01668+Q13698+Q13936); assay: Inhibition of human L-type calcium channel verapamil binding site at 10 uM relative to control; type: protein assay

Sequence of Histone-lysine N-methyltransferase KMT5C (Q86Y97 whole entry, the tested form may be a part): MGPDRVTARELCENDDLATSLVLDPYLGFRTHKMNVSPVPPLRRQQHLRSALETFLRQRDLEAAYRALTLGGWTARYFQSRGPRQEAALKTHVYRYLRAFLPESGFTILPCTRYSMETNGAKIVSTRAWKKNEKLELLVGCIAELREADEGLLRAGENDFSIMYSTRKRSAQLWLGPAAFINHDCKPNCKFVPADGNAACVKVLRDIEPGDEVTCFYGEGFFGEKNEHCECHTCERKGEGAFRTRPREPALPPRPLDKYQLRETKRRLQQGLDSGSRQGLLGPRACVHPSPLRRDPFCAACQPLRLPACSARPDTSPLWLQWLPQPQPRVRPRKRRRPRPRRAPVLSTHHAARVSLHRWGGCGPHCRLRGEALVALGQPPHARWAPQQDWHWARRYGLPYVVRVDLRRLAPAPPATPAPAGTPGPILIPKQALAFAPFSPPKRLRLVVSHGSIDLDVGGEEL

| IC50 [1] [µM] | IC50 [2] [µM] | Ki [4] [µM] | Ki [6] [µM] | Ki [10] [µM] | Ki [12] [µM] | Ki (Adenosine receptor A2a) [µM] | inhibition at 10 µM [14] [%] | Ki [15] [µM] | Ki (Adenosine receptor A1) [µM] | Ki (Adenosine receptor A3) [µM] | Ki [16] [µM] | inhibition at 10 µM [17] [%] | SMILES | Activity (B-cell [3]) [%] | Activity (B-cell [5]) [%] | Activity (B-cell [7]) [%] | Activity (B-cell [8]) [%] | Activity (B-cell [9]) [%] | Activity (B-cell [11]) [%] | inhibition at 10 µM [13] [%] |
| --- | --- | --- | --- | --- | --- | --- | --- | --- | --- | --- | --- | --- | --- | --- | --- | --- | --- | --- | --- | --- |
| 1.2 | 0.59 |  |  |  |  |  |  |  |  |  |  |  | Clc1cc2nccc(NC3CCCC3)c2cc1Cl |  |  |  |  |  |  |  |
| > 10 | > 10 | 13 | 2.7 | 1.1 | 3.9 | 20 | -5 | > 10 | 3.1 | 13 | > 10 | 4 | O=C(c1nnc(NC2CCCC2)c2cc(Cl)c(Cl)cc12)N1CCC(O)CC1 | 2.45 | 1.94 | 10.6 | 10.7 | 5.11 | 5.55 | -5 |
